Reference: patent US20230183226A1, “AKT3 MODULATORS” (Georgiamune LLC, priority 2020, published 2023)

Target: Akt3 (Homo sapiens, UniProt Q9Y243)
Assay: Akt3 inhibition and activation activity (Foxp3 induction assay / Jurkat-FoxP3 luciferase reporter assay)
Format: cell-based
Settings: Table 2
Protocol: Sorted or enriched (Miltenyi magnetic separation) CD4 conventional T cells (Tconvs−CD4+/CD25) from C57/Bl6 mice were used for the induction of iTregs. A 10 µg/mL plate-bound anti-CD3 antibody (50 ul per well for 96-well plate), […] of soluble anti-CD28 antibody, 100 IU/mL of IL2 and 5 ng/mL of TGF-β in absence or presence of different concentrations of drug (usually titrating from 0.01 uM to 10 uM) were used. As negative control for induction, samples without TGF-β were used.
After 3 days of culture in presence of stimulation, TGF-β and drug, cells were stained with fixable live/dead cell stain (Life Technologies, NY) for gating and exclusion of toxic doses. The mouse Foxp3 buffer kit was used to fix and permeabilize cells according to the manufacturer's instructions (BD Bioscience, San Jose, Calif.). The anti-CD4 antibody and anti-Foxp3 antibody were used to stain the cells. After staining, cells were acquired using flow cytometer.
Cells Culture Process: Prepare a 50 ml conical tube and a T-25 culture flask with 5 ml of pre-warmed Thaw Medium 2 (no G418). Quickly thaw cells in a 37° C. water bath with constant and slow agitation. Immediately transfer the entire contents to the conical tube with Thaw Medium 2 (no G418) and centrifuge the cells at 200×g for 3 minutes.

Sequence of Akt3 (Q9Y243 2-479): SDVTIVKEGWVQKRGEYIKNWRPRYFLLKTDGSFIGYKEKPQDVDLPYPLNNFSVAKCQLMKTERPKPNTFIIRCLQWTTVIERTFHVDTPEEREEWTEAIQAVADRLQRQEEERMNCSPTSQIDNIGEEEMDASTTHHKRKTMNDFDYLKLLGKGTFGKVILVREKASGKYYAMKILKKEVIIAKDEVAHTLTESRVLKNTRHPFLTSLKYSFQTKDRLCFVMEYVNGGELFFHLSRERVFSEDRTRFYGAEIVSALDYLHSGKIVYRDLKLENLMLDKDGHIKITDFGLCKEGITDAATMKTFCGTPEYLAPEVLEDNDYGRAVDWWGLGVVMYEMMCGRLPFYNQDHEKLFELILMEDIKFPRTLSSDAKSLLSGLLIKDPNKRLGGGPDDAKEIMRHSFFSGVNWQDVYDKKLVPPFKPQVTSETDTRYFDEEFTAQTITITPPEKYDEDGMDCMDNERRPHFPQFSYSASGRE

**Q.** For “6-(2,6-dimethylmorpholino)-2-methyl-N-(4-(5-(2-methylpyridin-4-ylamino)-1H-benzo[d]imidazol-2-yl)phenyl)quinolin-4-amine [Compound 128]”, which EC50 is on record?
**A.** < 50 nM
